Test results from US4723008A, “Isoprenylamine derivatives” (priority 1981, dated 1988).

What was measured:
[1] = system: vaccinia virus; type: in vivo, vaccinia virus; ICR female mice; conditions: 50 mg/kg intraperitoneally 24 hours before inoculation; lesions counted on 8th day
[2] = system: tumor cells KN7 -8; test: Anti-tumor activity (survivors on the 30th day); type: in vivo, Balb/c male mice; conditions: 30 mg/kg intraperitoneally 3 times (24 hours before, second and fifth day after inoculation of 5×10^5 cells); survivors/group
Text: Groups, each consisting of Balb/c male mice weighing about 20 g, were intraperitoneally administered 5×10^5 of tumor cells KN7 -8.

[3] = system: Human interferon (normal diploid cells (fibroblast) originated from human being); test: Human interferon inducing activity (in vitro), 3H-uridine-uptake inhibition; type: cell-based; conditions: 25 n molar suspension
Method: (5) Human interferon inducing activity (in vitro)
Interferon was induced according to the method of Edward A. Havell et al. by treating normal diploid cells (fibroblast) originated from human being with each test compound in the form of ethanol solution diluted with PBS (--), (25 n molar suspension). Using the radioisotope microassay method or H. Ishitsuka et al., interferon was measured in terms of 3H-uridine-uptakeinhibition rate.

[4] = Toxicity, 50% lethal dose, intravenous; conditions: mouse, in vivo, ddY male mice, read-out: LD50 (Intravenous administration mg/kg)
Text: Using ddY male mice weighing 20-25 g, 50% lethal dose of each test compound intravenously administered was obtained, the results of which are shown in Table 6.

[5] = system: vaccinia virus (vero cells); type: cell-based; conditions: 50 n molar concentration

COc1ccc(CN(CC=C(C)CCC=C(C)CCC=C(C)CCC=C(C)CCC=C(C)CCC=C(C)CCC=C(C)CCC=C(C)CCC=C(C)C)CC=C(C)CCC=C(C)CCC=C(C)CCC=C(C)CCC=C(C)CCC=C(C)CCC=C(C)CCC=C(C)CCC=C(C)C)cc1OC
Prevention from vaccinia infection (Pock inhibition rate %) [1]: 32.4%

CC(C)=CCCC(C)=CCCC(C)=CCCC(C)=CCCC(C)=CCCC(C)=CCCC(C)=CCCC(C)=CCCC(C)=CCN(CC=C(C)CCC=C(C)CCC=C(C)CCC=C(C)CCC=C(C)CCC=C(C)CCC=C(C)CCC=C(C)CCC=C(C)C)CCCCc1ccccc1
Prevention from vaccinia infection (Pock inhibition rate %) [1]: 34.1%

COc1ccc(CN(CC=C(C)CCC=C(C)CCC=C(C)CCC=C(C)CCC=C(C)CCC=C(C)CCC=C(C)CCC=C(C)CCC=C(C)CCC=C(C)C)CC=C(C)CCC=C(C)CCC=C(C)CCC=C(C)CCC=C(C)CCC=C(C)CCC=C(C)CCC=C(C)CCC=C(C)CCC=C(C)C)cc1
Prevention from vaccinia infection (Pock inhibition rate %) [1]: 38.8%

CC(C)=CCCC(C)=CCCC(C)=CCCC(C)=CCCC(C)=CCCC(C)=CCCC(C)=CCCC(C)=CCCC(C)=CCN(CCCN)CCCN
Anti-tumor activity (Survivor on the 30th day) [2]: 4/6

COc1ccc(CN(CC=C(C)CCC=C(C)C)CC=C(C)CCC=C(C)C)cc1OC
Human interferon 3H-uridine-uptake inhibition rate (%) [3]: 68.4%

CC(C)=CCCC(C)=CCCC(C)=CCCC(C)=CCCC(C)=CCCC(C)=CCCC(C)=CCCC(C)=CCCC(C)=CCCC(C)=CCN1CCOCCOCCNCCOCCOCC1 [drawing 37]
Prevention from vaccinia infection (Pock inhibition rate %) [1]: 57.1%

CC(C)=CCCC(C)=CCCC(C)=CCCC(C)=CCCC(C)=CCCC(C)=CCCC(C)=CCCC(C)=CCCC(C)=CCCC(C)=CCN(CCO)CC(O)c1ccccc1 (stereo not shown) [drawing 38]
Prevention from vaccinia infection (Pock inhibition rate %) [1]: 60.1%

CC(C)=CCCC(C)=CCCC(C)=CCCC(C)=CCCC(C)=CCCC(C)=CCCC(C)=CCCC(C)=CCCC(C)=CCN(CCc1ccccc1)CC(O)CNC(C)(C)C (stereo not shown) [drawing 41]
Prevention from vaccinia infection (Pock inhibition rate %) [1]: 82.9%

CC(C)=CCCC(C)=CCCC(C)=CCCC(C)=CCCC(C)=CCCC(C)=CCCC(C)=CCCC(C)=CCCC(C)=CCN(CCc1ccccc1)CC(O)CN1CCN(CCO)CC1 (stereo not shown) [drawing 42]
Prevention from vaccinia infection (Pock inhibition rate %) [1]: 85.6%

CC(C)=CCCC(C)=CCCC(C)=CCCC(C)=CCCC(C)=CCCC(C)=CCCC(C)=CCCC(C)=CCCC(C)=CCN(Cc1ccccc1)Cc1ccccc1 [drawing 43]
Prevention from vaccinia infection (Pock inhibition rate %) [1]: 50.3%

CC(C)=CCCC(C)=CCCC(C)=CCCC(C)=CCCC(C)=CCCC(C)=CCCC(C)=CCCC(C)=CCCC(C)=CCN(CCO)Cc1ccccc1 [drawing 44]
Prevention from vaccinia infection (Pock inhibition rate %) [1]: 53.4%

CC(C)=CCCC(C)=CCCC(C)=CCCC(C)=CCCC(C)=CCCC(C)=CCCC(C)=CCCC(C)=CCCC(C)=CCCC(C)=CCN1CCN(Cc2ccccc2)CC1 [drawing 48]
Prevention from vaccinia infection (Pock inhibition rate %) [1]: 64.0%

CC(C)=CCCC(C)=CCCC(C)=CCCC(C)=CCCC(C)=CCCC(C)=CCCC(C)=CCCC(C)=CCCC(C)=CCCC(C)=CCN(CCO)Cc1ccccc1 [drawing 49]
Prevention from vaccinia infection (Pock inhibition rate %) [1]: 38.4%

CC(C)=CCCC(C)=CCCC(C)=CCCC(C)=CCCC(C)=CCCC(C)=CCCC(C)=CCCC(C)=CCCC(C)=CCCC(C)=CCN1CCOCCOCCNCCOCCOCC1 [drawing 56]
Anti-tumor activity (Survivor on the 30th day) [2]: 3/6

CC(C)=CCCC(C)=CCCC(C)=CCCC(C)=CCCC(C)=CCCC(C)=CCCC(C)=CCCC(C)=CCCC(C)=CCCC(C)=CCN(Cc1ccccc1)CC(O)CN(CCO)CCO (stereo not shown) [drawing 57]
Anti-tumor activity (Survivor on the 30th day) [2]: 1/6

CC(C)=CCCC(C)=CCCC(C)=CCCC(C)=CCCC(C)=CCCC(C)=CCCC(C)=CCCC(C)=CCCC(C)=CCCC(C)=CCN(Cc1ccccc1)CC(O)CNC(C)(C)C (stereo not shown) [drawing 58]
Anti-tumor activity (Survivor on the 30th day) [2]: 2/6

CC(C)=CCCC(C)=CCCC(C)=CCCC(C)=CCCC(C)=CCCC(C)=CCCC(C)=CCCC(C)=CCCC(C)=CCN(CCc1ccccc1)CC(O)CN1CCN(CCO)CC1 (stereo not shown) [drawing 59]
Anti-tumor activity (Survivor on the 30th day) [2]: 4/6

CC(C)=CCCC(C)=CCCC(C)=CCCC(C)=CCCC(C)=CCCC(C)=CCCC(C)=CCCC(C)=CCCC(C)=CCCC(C)=CCN(CCO)CC(O)c1ccccc1 (stereo not shown) [drawing 62]
LD50 [4]: 258 mg/kg

CC(C)=CCCC(C)=CCCC(C)=CCCC(C)=CCCC(C)=CCCC(C)=CCCC(C)=CCCC(C)=CCCC(C)=CCCC(C)=CCN(Cc1ccccc1)CC(O)CN(CCO)CCO (stereo not shown) [drawing 63]
LD50 [4]: 162 mg/kg

CC(C)=CCCC(C)=CCCC(C)=CCCC(C)=CCCC(C)=CCCC(C)=CCCC(C)=CCCC(C)=CCCC(C)=CCN(CCc1ccccc1)CC(O)CNC(C)(C)C (stereo not shown) [drawing 64]
LD50 [4]: 28 mg/kg

CC(C)=CCCC(C)=CCCC(C)=CCCC(C)=CCCC(C)=CCCC(C)=CCCC(C)=CCCC(C)=CCCC(C)=CCN(CCc1ccccc1)CC(O)CN1CCN(CCO)CC1 (stereo not shown) [drawing 65]
LD50 [4]: 338 mg/kg

CC(C)=CCCC(C)=CCCC(C)=CCCC(C)=CCCC(C)=CCCC(C)=CCCC(C)=CCCC(C)=CCCC(C)=CCN(CCO)Cc1ccccc1 [drawing 66]
LD50 [4]: 791 mg/kg

CC(C)=CCCC(C)=CCCC(C)=CCCC(C)=CCCC(C)=CCCC(C)=CCCC(C)=CCCC(C)=CCCC(C)=CCCC(C)=CCN1CCOCCOCCNCCOCCOCC1 [drawing 67]
Human interferon 3H-uridine-uptake inhibition rate (%) [3]: 28.3%

CC(C)=CCCC(C)=CCCC(C)=CCCC(C)=CCCC(C)=CCCC(C)=CCCC(C)=CCCC(C)=CCCC(C)=CCCC(C)=CCN(CCO)CC(O)c1ccccc1 (stereo not shown) [drawing 68]
Human interferon 3H-uridine-uptake inhibition rate (%) [3]: 4.3%

CC(C)=CCCC(C)=CCCC(C)=CCCC(C)=CCCC(C)=CCCC(C)=CCCC(C)=CCCC(C)=CCCC(C)=CCCC(C)=CCN(Cc1ccccc1)CC(O)CN(CCO)CCO (stereo not shown) [drawing 69]
Human interferon 3H-uridine-uptake inhibition rate (%) [3]: 61.3%

CC(C)=CCCC(C)=CCCC(C)=CCCC(C)=CCCC(C)=CCCC(C)=CCCC(C)=CCCC(C)=CCCC(C)=CCCC(C)=CCN(Cc1ccccc1)CC(O)CNC(C)(C)C (stereo not shown) [drawing 70]
Human interferon 3H-uridine-uptake inhibition rate (%) [3]: 59.8%

CC(C)=CCCC(C)=CCCC(C)=CCCC(C)=CCCC(C)=CCCC(C)=CCCC(C)=CCCC(C)=CCCC(C)=CCN(CCc1ccccc1)CC(O)CNC(C)(C)C (stereo not shown) [drawing 71]
Human interferon 3H-uridine-uptake inhibition rate (%) [3]: 32.6%

CC(C)=CCCC(C)=CCCC(C)=CCCC(C)=CCCC(C)=CCCC(C)=CCCC(C)=CCCC(C)=CCCC(C)=CCN(CCc1ccccc1)CC(O)CN1CCN(CCO)CC1 (stereo not shown) [drawing 72]
Human interferon 3H-uridine-uptake inhibition rate (%) [3]: 17.4%

CC(C)=CCCC(C)=CCCC(C)=CCCC(C)=CCCC(C)=CCCC(C)=CCCC(C)=CCCC(C)=CCCC(C)=CCN(Cc1ccccc1)Cc1ccccc1 [drawing 73]
Human interferon 3H-uridine-uptake inhibition rate (%) [3]: 4.4%

CC(C)=CCCC(C)=CCCC(C)=CCCC(C)=CCCC(C)=CCCC(C)=CCCC(C)=CCCC(C)=CCCC(C)=CCN(CCO)Cc1ccccc1 [drawing 74]
Human interferon 3H-uridine-uptake inhibition rate (%) [3]: 5.1%

CC(C)=CCCC(C)=CCCC(C)=CCCC(C)=CCCC(C)=CCCC(C)=CCCC(C)=CCCC(C)=CCCC(C)=CCCC(C)=CCN1CCN(Cc2ccccc2)CC1 [drawing 78]
Human interferon 3H-uridine-uptake inhibition rate (%) [3]: 3.6%

CC(C)=CCCC(C)=CCCC(C)=CCCC(C)=CCCC(C)=CCCC(C)=CCCC(C)=CCCC(C)=CCCC(C)=CCCC(C)=CCN(CCO)Cc1ccccc1 [drawing 79]
Human interferon 3H-uridine-uptake inhibition rate (%) [3]: 25.4%

CC(C)=CCCC(C)=CCCC(C)=CCCC(C)=CCCC(C)=CCCC(C)=CCCC(C)=CCCC(C)=CCCC(C)=CCCC(C)=CCN(Cc1ccccc1)CC(O)CN(CCO)CCO (stereo not shown) [drawing 83]
Anti-vaccinia virus activity (Plaque inhibition rate %) [5]: 10.6%

CC(C)=CCCC(C)=CCCC(C)=CCCC(C)=CCCC(C)=CCCC(C)=CCCC(C)=CCCC(C)=CCCC(C)=CCCC(C)=CCN(CCO)Cc1ccccc1 [drawing 84]
Anti-vaccinia virus activity (Plaque inhibition rate %) [5]: 14.1%
